From US20040067965A1, “Antiviral method of use” (priority 2001, published 2004) come the findings set out here.

Each structure is given as a SMILES string.

For data set [1], the system named is HCMV strain AD169. The experiment in a line: HCMV plaque reduction (inhibition of virus replication in cell culture). The format is cell-based, human cytomegalovirus. To be noted: for IC50: Human betaherpesvirus 5, MRC5, HCMV strain AD169, plaque formation, MRC-5 cells, read-out: IC50 = 50% Inhibitory Concentration of HCMV strain AD169 induced plaque formation in MRC-5 Cells. The text has this: All materials required for this testing are commercially available. The testing method described is well documented in the literature, see, e.g. Colacino, J M and Lopez C., 1983, “Efficacy and selectivity of some nucleoside analogs as anti-human cytomegalovirus agents.” Antimicrob. Agents Chemother. 24:505-508; Colacino, J M and Lopez C., 1985, “Antiviral activity of 2′-deoxy-2′-fluoro-beta-D-arabinofuranosyl-5-iodocytosine against human cytomegalovirus in human skin fibroblasts.” Antimicrob. Agents Chemother. 28:252-258; and Mauldin, S C, Paget C J Jr., Jones C D, Colacino J M, Baxter A J, Staschke K A, Johansson N G, and Vrang L., 1998, “Synthesis and antiviral activity of prodrugs of the nucleoside 1-[2′,3′-dideoxy-3′-C-(hydroxymethyl)-beta-D-erythropentofuranosyl] cytosine.” Bioorg. Med Chem. 6:577-585.
Human fibroblast cells, foreskin or fetal lung cells, are infected with human cytomegalovirus. The cells are incubated with standard cell culture media containing no or increasing concentrations of ALIMTA. […] Additionally the yield of virus produced in the non-treated infected cell control cultures is compared to the yield of virus produced in the treated infected cell cultures.
The percent inhibition of virus replication can be determined and the concentration of molecule required to inhibit viral replication by 50% (IC50) and 90% (IC90) can be calculated using linear regression analysis.

Data set [2] in a line: in vitro. The format is cell-based. To be noted: human.

In general, CC50 refers to the concentration at which the toxic effect on the cells reaches its halfway point. A lower CC50 goes with greater toxicity to the cells.

Take `Nc1nc(O)c2ncn(COC(CO)CO)c2n1` [Ganciclovir]: in data set [1], the IC50 is 6.37 µM. Further, the CC50 in data set [2] was greater than 100 µM.

Regarding `Nc1nc2[nH]cc(CCc3ccc(C(=O)N[C@@H](CCC(=O)[O-])C(=O)[O-])cc3)c2c(=O)[nH]1.[Na+].[Na+]` [ALIMTA, disodium N-[4-[2-(2-amino-4,7-dihydro-4-oxo-3H-pyrrolo[2,3-d]-pyrimidin-5-yl)ethyl]benzoyl]-L-glutamic acid salt], in data set [1] (HCMV strain AD169 in MRC-5 cells), the “Comments (HCMV screening summary)” value is “High activity”. Also, the IC50 in data set [1] was determined as 0.29 µM. In addition, in data set [1] (TC50 (MRC-5) / IC50 (HCMV AD169 plaque formation), called selective index in text), the “TI (Therapeutic Index) = TC50/IC50” value is on record as greater than 344.8. Further, the CC50 in data set [2] is greater than 100 µM.
